Test results published in patent publication US8552220B2, “Therapeutic agent for Alzheimer's disease” (Tokyo Institute of Technology, priority 2008, dated 2013).

SMILES | melting point
O=C(/C=C/c1ccc(O)cc1)CC(=O)/C=C/c1ccccc1-c1ccc2ccccc2c1 [CU529, (1E,6E)-1-(4-hydroxyphenyl)-7-[2-(naphthalen-2-yl)phenyl]hepta-1,6-diene-3,5-dione] | 105 to 114 °C
O=C(/C=C/c1cc(O)ccc1[N+](=O)[O-])CC(=O)CCc1ccc(O)cc1 [CU530, (E)-1-(5-hydroxy-2-nitrophenyl)-7-(4-hydroxyphenyl)hept-1-ene-3,5-dione] | 62 to 70 °C
O=C(/C=C/c1ccc(O)cc1)CC(=O)/C=C/c1cc(O)ccc1-c1cccc2ccccc12 [CU538, (1E,6E)-1-[5-hydroxy-2-(naphthalen-1-yl)phenyl]-7-(4-hydroxyphenyl)hepta-1,6-diene-3,5-dione] | 215 to 221 °C
COc1cc(/C=C/C(=O)CC(=O)/C=C/c2ccc(O)cc2)c(Br)cc1O [CU539, (1E,6E)-1-(2-bromo-4-hydroxy-5-methoxyphenyl)-7-(4-hydroxyphenyl)hepta-1,6-diene-3,5-dione] | 237 to 242 °C
O=C(/C=C/c1cc(O)ccc1-c1ccccc1)CC(=O)CCc1ccc(O)cc1 [CU541, (E)-1-(4-hydroxybiphenyl-2-yl)-7-(4-hydroxyphenyl)hept-1-ene-3,5-dione] | 148 to 158 °C
O=C(/C=C/c1cc(O)ccc1-c1cccc2ccccc12)CC(=O)CCc1ccc(O)cc1 [CU542, (E)-1-[5-hydroxy-2-(naphthalen-1-yl)phenyl]-7-(4-hydroxyphenyl)hept-1-ene-3,5-dione] | 138 to 142 °C
COc1cc(Br)c(/C=C/C(=O)CC(=O)/C=C/c2ccc(O)cc2)cc1O [CU543, (1E,6E)-1-(2-bromo-5-hydroxy-4-methoxyphenyl)-7-(4-hydroxyphenyl)hepta-1,6-diene-3,5-dione] | 224 to 229 °C
O=C(/C=C/c1ccc(O)cc1)CC(=O)/C=C/c1cc(O)c(Br)cc1Br [CU544, (1E,6E)-1-(2,4-dibromo-5-hydroxyphenyl)-7-(4-hydroxyphenyl)hepta-1,6-diene-3,5-dione] | 255 to 259 °C
O=C(/C=C/c1cc(O)ccc1Br)CC(=O)CCc1ccc(O)cc1 [CU549, (E)-1-(2-bromo-5-hydroxyphenyl)-7-(4-hydroxyphenyl)hept-1-ene-3,5-dione] | 161 to 165 °C
CN(C)CCOc1ccc(/C=C/C(=O)CC(=O)/C=C/c2ccc(O)cc2)c(Cl)c1 [CU551, (1E,6E)-1-[2-chloro-4-(2-dimethylaminoethoxy)phenyl]-7-(4-hydroxyphenyl)hepta-1,6-diene-3,5-dione] | 170 to 173 °C
CN(C)CCOc1ccc(Br)c(/C=C/C(=O)CC(=O)/C=C/c2ccc(O)cc2)c1 [CU552, (1E,6E)-1-[2-bromo-5-(2-dimethylaminoethoxy)phenyl]-7-(4-hydroxyphenyl)hepta-1,6-diene-3,5-dione] | 163 to 167 °C
CN(C)c1ccc(/C=C/C(=O)CC(=O)/C=C/c2ccc(O)cc2)c(C(F)(F)F)c1 [CU555, (1E,6E)-1-(4-dimethylamino-2-trifluoromethylphenyl)-7-(4-hydroxyphenyl)hepta-1,6-diene-3,5-dione] | 195 to 199 °C
CN(C)c1ccc(/C=C/C(=O)CC(=O)CCc2ccc(O)cc2)c(C(F)(F)F)c1 [CU556, (E)-1-(4-dimethylamino-2-trifluoromethylphenyl)-7-(4-hydroxyphenyl)hept-1-ene-3,5-dione] | 110 to 114 °C
COc1cc(O)ccc1/C=C/C(=O)CC(=O)/C=C/c1cc(OCc2ccccc2)ccc1-c1ccccc1 [CU559, (1E,6E)-1-(4-benzyloxybiphenyl-2-yl)-7-(4-hydroxy-2-methoxyphenyl)hepta-1,6-diene-3,5-dione] | 175 to 180 °C
COc1cc(O)ccc1/C=C/C(=O)CC(=O)/C=C/c1cc(O)ccc1Br [CU561, (1E,6E)-1-(2-bromo-5-hydroxyphenyl)-7-(4-hydroxy-2-methoxyphenyl)hepta-1,6-diene-3,5-dione] | 92 to 98 °C
O=C(/C=C/c1ccc2cc[nH]c2c1)CC(=O)/C=C/c1cc(O)ccc1Br [CU562, (1E,6E)-1-(2-bromo-5-hydroxyphenyl)-7-(1H-indol-6-yl)hepta-1,6-diene-3,5-dione] | 196 to 200 °C
O=C(/C=C/c1ccc2cc[nH]c2c1)CC(=O)/C=C/c1cc(OCc2ccccc2)ccc1-c1ccccc1 [CU566, (1E,6E)-1-(4-benzyloxybiphenyl-2-yl)-7-(1H-indol-6-yl)hepta-1,6-diene-3,5-dione] | 178 to 183 °C
COc1cc(O)ccc1/C=C/C(=O)CC(=O)/C=C/c1ccccc1C(F)(F)F [CU574, (1E,6E)-1-(4-hydroxy-2-methoxyphenyl)-7-(2-trifluoromethylphenyl)hepta-1,6-diene-3,5-dione] | 176 to 180 °C
COc1cc(O)ccc1/C=C/C(=O)CC(=O)/C=C/c1ccc(N(C)C)cc1Cl [CU581, (1E,6E)-1-(2-chloro-4-dimethylaminophenyl)-7-(4-hydroxy-2-methoxyphenyl)hepta-1,6-diene-3,5-dione] | 187 to 192 °C
COc1cc(O)ccc1/C=C/C(=O)CC(=O)/C=C/c1cc(O)ccc1-c1ccccc1 [CU582, (1E,6E)-1-(4-hydroxybiphenyl-2-yl)-7-(4-hydroxy-2-methoxyphenyl)hepta-1,6-diene-3,5-dione] | 108 to 114 °C
CN(C)c1ccc(/C=C/C(=O)CC(=O)/C=C/c2ccc3cc[nH]c3c2)c(Cl)c1 [CU584, (1E,6E)-1-(2-chloro-4-dimethylaminophenyl)-7-(1H-indol-6-yl)hepta-1,6-diene-3,5-dione] | 180 to 185 °C
COc1cc(O)ccc1/C=C/C(=O)CC(=O)/C=C/c1cc(O)ccc1[N+](=O)[O-] [CU585, (1E,6E)-1-(4-hydroxy-2-methoxyphenyl)-7-(5-hydroxy-2-nitrophenyl)hepta-1,6-diene-3,5-dione] | 119 to 123 °C
O=C(/C=C/c1ccc2cc[nH]c2c1)CC(=O)/C=C/c1cc(OCc2ccccc2)ccc1[N+](=O)[O-] [CU588, (1E,6E)-1-(5-benzyloxy-2-nitrophenyl)-7-(1H-indol-6-yl)hepta-1,6-diene-3,5-dione] | 181 to 186 °C
CN(C)c1ccc(/C=C/C(=O)CC(=O)/C=C/c2ccc3cc[nH]c3c2)c([N+](=O)[O-])c1 [CU592, (1E,6E)-1-(4-dimethylamino-2-nitrophenyl)-7-(1H-indol-6-yl)hepta-1,6-diene-3,5-dione] | 196 to 201 °C

Other lines, results leading:

melting point | SMILES
183 to 186 °C | COc1cc(O)ccc1/C=C/C(=O)CC(=O)/C=C/c1cc(OCc2ccccc2)ccc1[N+](=O)[O-] [CU594, (1E,6E)-1-(5-benzyloxy-2-nitrophenyl)-7-(4-hydroxy-2-methoxyphenyl)hepta-1,6-diene-3,5-dione]
204 to 207 °C | O=C(/C=C/c1ccc2cc[nH]c2c1)CC(=O)/C=C/c1cc(O)ccc1[N+](=O)[O-] [CU596, (1E,6E)-1-(5-hydroxy-2-nitrophenyl)-7-(1H-indol-6-yl)hepta-1,6-diene-3,5-dione]
206 to 211 °C | COc1cc(O)ccc1/C=C/C(=O)CC(=O)/C=C/c1ccc(O)cc1Cl [CU600, (1E,6E)-1-(2-chloro-4-hydroxyphenyl)-7-(4-hydroxy-2-methoxyphenyl)hepta-1,6-diene-3,5-dione]
182 to 186 °C | O=C(/C=C/c1ccc2cc[nH]c2c1)CC(=O)/C=C/c1ccc(O)cc1Cl [CU601, (1E,6E)-1-(2-chloro-4-hydroxyphenyl)-7-(1H-indol-6-yl)hepta-1,6-diene-3,5-dione]
223 to 226 °C | COc1cc(O)ccc1/C=C/C(=O)CC(=O)/C=C/c1ccc(N(C)C)cc1[N+](=O)[O-] [CU603, (1E,6E)-1-(4-dimethylamino-2-nitrophenyl)-7-(4-hydroxy-2-methoxyphenyl)hepta-1,6-diene-3,5-dione]
185 to 191 °C | O=C(/C=C/c1ccc2cc[nH]c2c1)CC(=O)/C=C/c1cc(O)ccc1-c1ccccc1 [CU604, (1E,6E)-1-(4-hydroxybiphenyl-2-yl)-7-(1H-indol-6-yl)hepta-1,6-diene-3,5-dione]
90 to 96 °C | COc1ccc(O)cc1/C=C/C(=O)CC(=O)/C=C/c1cc(O)ccc1Br [CU608, (1E,6E)-1-(2-bromo-5-hydroxyphenyl)-7-(5-hydroxy-2-methoxyphenyl)hepta-1,6-diene-3,5-dione]
209 to 214 °C | CN(C)c1ccc(/C=C/C(=O)CC(=O)/C=C/c2cc(O)ccc2Br)c(Cl)c1 [CU609, (1E,6E)-1-(2-bromo-5-hydroxyphenyl)-7-(2-chloro-4-dimethylaminophenyl)hepta-1,6-diene-3,5-dione]
132 to 136 °C | O=C(/C=C/c1ccc(O)cc1Cl)CC(=O)/C=C/c1cc(O)ccc1[N+](=O)[O-] [CU611, (1E,6E)-1-(2-chloro-4-hydroxyphenyl)-7-(5-hydroxy-2-nitrophenyl)hepta-1,6-diene-3,5-dione]
239 to 243 °C | O=C(/C=C/c1cc(O)ccc1Br)CC(=O)/C=C/c1cc(O)ccc1Br [CU614, (1E,6E)-1,7-bis(2-bromo-5-hydroxyphenyl)hepta-1,6-diene-3,5-dione]
66 to 70 °C | O=C(/C=C/c1cc(O)ccc1Br)CC(=O)/C=C/c1ccccc1C(F)(F)F [CU615, (1E,6E)-1-(2-bromo-5-hydroxyphenyl)-7-(2-trifluoromethylphenyl)hepta-1,6-diene-3,5-dione]
101 to 104 °C | O=C(/C=C/c1cc(O)ccc1Br)CC(=O)/C=C/c1cc(O)ccc1-c1ccccc1 [CU616, (1E,6E)-1-(2-bromo-5-hydroxyphenyl)-7-(4-hydroxybiphenyl-2-yl)hepta-1,6-diene-3,5-dione]
205 to 209 °C | O=C(/C=C/c1ccc(O)cc1)CC(=O)/C=C/c1cc(O)ccc1F [CU621, (1E,6E)-1-(2-fluoro-5-hydroxyphenyl)-7-(4-hydroxyphenyl)hepta-1,6-diene-3,5-dione]
146 to 150 °C | O=C(/C=C/c1ccc(O)cc1)CC(=O)/C=C/c1ccccc1F [CU622, (1E,6E)-1-(2-fluorophenyl)-7-(4-hydroxyphenyl)hepta-1,6-diene-3,5-dione]
186 to 192 °C | O=C(/C=C/c1ccc(O)cc1)CC(=O)/C=C/c1ccccc1-n1cncn1 [CU623, (1E,6E)-1-[2-(1H-1,2,4-triazol-1-yl)phenyl]-7-(4-hydroxyphenyl)hepta-1,6-diene-3,5-dione]
